Assay results taken from USRE39530E1, “3-amino-3-arylpropan-1-ol-compounds, their preparation and use” (Gruenenthal GmbH, priority 1999, dated 2007).

Assays:
[1] = tested on: phenylquinone-induced writhing; test: Phenylquinone-induced writhing test on mice; assay type: in vivo; details: male NMRI mice, 10 min before phenylquinone i.p., writhing counted 5 to 20 min after phenylquinone
Experimental: The analgesic activity was investigated on phenylquinone-induced writhing in mice (modified by I. C. Hendershot and J. Forsaith (1959) J. Pharmacol. Exp. Ther. 125, 237-240). Male NMRI mice weighing 25 to 30 g were used for this. Groups of 10 animals per dose of substance received 0.3 ml/mouse of a 0.02% aqueous solution of phenylquinone (phenylbenzoquinone), Sigma, Deisenhofen; preparation of the solution with addition of 5% ethanol and storage in a water bath at 45° C.) as an intraperitoneal administration 10 minutes after intravenous administration of the test substances. The animals were placed individually in observation cages. The number of pain-induced extension movements (so-called writhing reactions=straightening of the body with stretching out of the hind extremities) 5 to 20 minutes after the administration of phenylquinone was counted by means of a push-button counter. Animals which receive only physiological saline solution were also run as a control. All the substances were tested in the standard dosage of 10 mg/kg. The percentage inhibition (% inhibition) of the writhing reaction by a substance was calculated in accordance with the following equation: [formula] For some substances, the ED50 values with 95% confidence limits of the writhing reaction were calculated from the dose-dependent decrease in the writhing reactions compared with phenylquinone control groups investigated in parallel by means of regression analysis (evaluation program of Martens EDV Service, Eckental).

[2] = tested on: benzothiazepine bonding site of the L-type calcium channel; test: Bonding investigations on the L calcium channel, benzothiazepine bonding site (diltiazem bonding); assay type: binding; details: rat cerebrocortex membranes; for Diltiazem bonding at 10 μM: percentage inhibition at 10 μM test substance, [3H]-cis-(+)-diltiazem 5 nM
Experimental: Benzothiazepine Bonding Site (diltiazem bonding)
The biological membrane material was isolated from the cerebrocortex of the rat. [^3H]-cis-(+)-Diltiazem (5 nM in the batch) was used as the ligand. Incubation for 20 minutes at 25° C. The radioactivity measured in the presence of (+)-diltiazem (10^−6 M in the batch) is defined as non-specific bonding. At the end of the incubation, the non-bonded content of radioactive ligand is removed with the aid of a filtration process over Whatman glass fiber GF/B membranes. After a washing process, the membranes are then measured on a β-counter. The method has been established in accordance with the publication of Schoemaker and Langer (H. Schoemaker and S. Z. Langer (1985) Eur. J. Pharmacol. 111, 273-277).
(§1) In addition to the percentage inhibition of the test systems at fixed test substance concentrations (10 μM in the batch), dose-dependencies were investigated. In this investigation, IC50 values are obtained, and these can be converted by the “Cheng-Prusoff equation” (Y. C. Cheng and W. H. Prusoff (1973) Biochem. Pharmacol. 22, 3099-3108) into inhibitor constants (Ki). The IC50 values were obtained with the aid of the “Figure P” computer program (version 6.0, Biosoft, Cambridge, England). Km values were calculated by the method of Lineweaver and Burk (H. Lineweaver and D. Burk (1934) J. Am. Chem. Soc. 56, 658-666). The “Ligand” computer program (version 4, Biosoft, England) is used to obtain KD values.

[3] = tested on: bonding site 2 of the sodium channel (BTX bonding site); test: Bonding investigations on the sodium channel, bonding site 2 (BTX bonding); assay type: binding; details: rat cerebrocortex synaptosomes; for BTX bonding at 10 μM: percentage inhibition at 10 μM test substance, [3H]-batrachotoxin A20 α-benzoate 10 nM
Experimental: Bonding Site 2 (BTX bonding)
Bonding site 2 of the sodium channel is the so-called batrachotoxin (BTX) bonding site. [^3H]-Batrachotoxin A20 α-benzoate (10 nM in the batch) was employed as the ligand. These ion channel particles (synaptosomes) were concentrated out of the rat cerebrocortex by the method of Gray and Whittaker (E. G. Gray and V. P. Whittaker (1962) J. Anat. 76, 79-88). The radioactivity measured in the presence of veratridin (0.3 mM in the batch) is defined as non-specific bonding. Incubation at 37° C. for 120 min. The assay conditions were implemented in accordance with the publication of Pauwels, Leysen and Laduron (P. J. Pauwels, J. E. Leysen and P. M. Laduron (1986) Eur. J. Pharmacol. 124, 291-298).
as §1

Compound | % Inhibition of the writhing reaction at 10 mg/kg intravenously [1] [%] | Diltiazem bonding at 10 μM [2] [%] | BTX bonding at 10 μM [3] [%] | Kd ([2]; radioligand, means±SEM, N=3, read-out: KD value for this high-affinity bonding site) [nM] | Kd ([3]; radioligand, means±SEM, N=3, read-out: KD value for this bonding site) [nM]
COc1ccc(C(=O)OC2CCCCC2C(c2ccccc2)N(C)C)cc1.Cl (stereo not shown) [Example 3, [2-(Dimethylaminophenylmethyl)cyclohexyl]4-methoxybenzoate hydrochloride] | 43 | 65 | 89 |  | 
[^3H]-cis-(+)-Diltiazem [reference compound] |  |  |  | 4.1 ± 0.75 | 
CN(C)C(c1ccccc1)C1CCCCC1OCc1cccc(F)c1.Cl (stereo not shown) [Example 5, {[2-(3-Fluorobenzyloxy)cyclohexyl]-phenylmethyl}dimethylamine hydrochloride] | 74 | 89 | 98 |  | 
CN(C)C(c1ccccc1Cl)C1CCCCC1OCc1ccccc1Cl.Cl (stereo not shown) [Example 4, {[2-(2-Chlorobenzyloxy)cyclohexyl]-(2-chlorophenyl)methyl}-dimethylamine hydrochloride] | 32 | 73 | 92 |  | 
[^3H]-Batrachotoxin A20 α-benzoate [reference compound] |  |  |  |  | 24.6 ± 1.56
CN(C)C(c1ccccc1)C1CCCCC1OCc1ccc(F)cc1.Cl (stereo not shown) [Example 6, {[2-(4-Fluorobenzyloxy)cyclohexyl]-phenylmethyl}dimethylamine hydrochloride] | 68 | 86 | 97 |  | 
Cc1ccccc1COC1CCCCC1C(c1ccccc1)N(C)C.Cl (stereo not shown) [Example 1, Dimethyl-{[2-(2-methyl-benzyloxy)cyclohexyl]phenylmethyl}-amine hydrochloride] | 85 | 82 | 99 |  | 
CN(C)C(c1ccccc1)C1CCCCC1OC(=O)c1ccc(C(F)(F)F)cc1.Cl (stereo not shown) [Example 2, [2-(Dimethylaminophenylmethyl)cyclohexyl]-4-trifluoromethylbenzoate hydrochloride] | 48 |  | 98 |  | 
